Source: US20260209242A1, “CAMPTOTHECIN DERIVATIVE, PHARMACEUTICAL COMPOSITION, AND PREPARATION METHOD AND USE THEREFOR” (priority 2022, published 2026)

Legend:
[1] = Pharmacokinetic test in SD rats; details: male, Sprague-Dawley (SD), rat, in vivo, iv, 2 mg/kg
Experimental: After a single intravenous injection (dose: 2 mpk) of the compounds 6-2, 11-2, 17-2, and Dxd into male SD rats (blood collection time points: 0.083 h, 0.25 h, 0.5 h, 1 h, 2 h, 4 h, 8 h, and 24 h after IV administration, totaling 8 blood collection time points), average pharmacokinetic parameters in the plasma are as shown in Table 5: […]

SK-BR-3 = assay: Inhibition of proliferation of cells SK-BR-3 (CelltiterGlo, 72 h); assay type: cell-based; details: Homo sapiens; SK-BR-3 cells, 72 h, CTG; read-out: IC50 (nM), antiproliferative activity on SK-BR-3
Experimental: • (1) Cell plating: first, tumor cells SK-BR-3 were cultured using a corresponding culture medium, trypsinized, centrifuged, resuspended for counting, adjusted to an appropriate concentration, and then plated on a 384-well plate. • (2) Co-incubation of the compounds and tumor cells: after the cells adhered to the wall, 100 nL of a diluted bioactive substance (test compound) was added to the cell culture plate using ECHO, the final concentration of DMSO in wells of the cell plate was 0.33%, and the incubation was performed in an incubator at 37° C. with 5% CO2 for 72 h. • (3) After the incubation was complete, 30 μL of a CTG reagent (CelltiterGlo kit) was added to each well. The culture was oscillated on a fast oscillator for 2 min, centrifuged at 1,000 rpm for 1 min, and kept away from light at room temperature for 30 min. The chemiluminescence signal value was read using an Envision instrument. • (4) Cell viability detection: IC50 was calculated using GraphPad Prism 8 software, and the IC50 of the compounds was obtained using the following nonlinear fitting formula (see Table 1):
[formula] • Y: inhibition rate; X: log value of compound concentration-,
[formula] • high-reading control wells: cells with addition of 100 nL DMSO; and • low-reading control wells: cell-free wells.

CYP1A2 = target: T1, CYP1A2 (Homo sapiens, UniProt P05177); assay: Inhibition on human hepatomicrosomes CYP1A2
T1 sequence (P05177 1-516): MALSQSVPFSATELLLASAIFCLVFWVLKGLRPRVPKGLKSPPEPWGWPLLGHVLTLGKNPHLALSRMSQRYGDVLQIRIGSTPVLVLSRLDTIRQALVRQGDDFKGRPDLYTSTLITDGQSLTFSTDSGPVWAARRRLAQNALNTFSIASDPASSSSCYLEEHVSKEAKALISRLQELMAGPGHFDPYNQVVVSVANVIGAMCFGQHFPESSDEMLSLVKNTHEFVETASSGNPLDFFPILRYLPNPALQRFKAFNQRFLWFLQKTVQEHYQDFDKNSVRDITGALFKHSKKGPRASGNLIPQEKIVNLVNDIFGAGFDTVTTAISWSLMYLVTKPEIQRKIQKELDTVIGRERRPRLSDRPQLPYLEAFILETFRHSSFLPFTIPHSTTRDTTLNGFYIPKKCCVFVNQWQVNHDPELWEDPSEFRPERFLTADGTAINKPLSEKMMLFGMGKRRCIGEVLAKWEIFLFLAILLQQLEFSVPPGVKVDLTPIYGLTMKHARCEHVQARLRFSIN

CC[C@@]1(O)C(=O)OCc2c1cc1n(c2=O)Cc2c-1nc1cc(F)c(C)c3c1c2[C@@H](NC(=O)[C@@H](O)C1CC1)CCC3 [Compound 11-2, (S)-2-cyclopropyl-N-((1S,10S)-10-ethyl-6-fluoro-10-hydroxy-5-methyl-11,14-dioxo-1,2,3,4,10,11,14,16-octahydro-13H-cyclohepta[de]pyrano[3′,4′:6,7]indolizino[1,2-b]quinolin-1-yl)-2-hydroxyacetamide]
AUC(0-inf) [1]: 465 ng·h/mL
AUC(0-t) [1]: 460 ng·h/mL
C0 [1]: 848 ng/mL
Vd [1]: 3.01 L/kg
clearance [1]: 72.7 mL/min/kg
half-life [1]: 37.8 min
IC50 (SK-BR-3): 2.4 nM
IC50 (CYP1A2): > 30000 nM
